Assay results reported in patent publication US8614206B2 (Genentech, Inc., priority 2011, dated 2013).
Like-named read-outs stand apart in the source and are kept apart here.

Assays:
BaF3 parental cells = test: In vitro cell proliferation, BaF3 parental line + IL3 (CellTiter-Glo); type: cell-based, murine
Protocol: (§1) BaF3 parental line was obtained from the DSMZ repository. BaF3 lines transfected with PIM 1 or PIM2 were generated. Mouse IL-3 was purchased from R&D Systems. G418 was purchased from Clontech. Media for BaF3 parental line contained RPMI, 10% FBS, 2 mM L-Glutamine, 2 ng/mL mIL-3. Media for BaF3 PIM1 & 2 lines contained RPMI, 10% FBS, 2 mM L-Glutamine, 250 μg/mL.
(§2) BaF3, a murine interleukin-3 dependent pro-B cell line, parental cells, BaF3 PIM1 cells, BaF3 PIM2 cells, and MM1.S (multiple myeloma) cells were seeded at 2 k/well, 5 k/well, 5 k/well, and 10 k/well respectively, in a 384-well plate, at 45 μL/well. Test compound was added at 5 μL/well. BaF3 cells (parental and transfected) were incubated overnight, while MM1.S cells were incubated for 72 hours at 37° C., 5% CO2. CELL TITER GLO® Reagent (Promega) was added at 50 μL/well, the plates were incubated for 30 minutes, and their luminescence read on an HT Analyst. IC50/EC50 values for the test compound were calculated.

BaF3 PIM1 cells = test: cells; conditions: Mus musculus
Protocol: as §1, §2

PIM1 = PIM1 (Homo sapiens (Human), UniProt P11309); test: Pim kinase inhibition, PIM1 LC3K (Example 901); type: biochemical
Description: Determination of the Pim kinase activity of a Formula I compound is possible by a number of direct and indirect detection methods.

[1] = test system: MM1.S (multiple myeloma) cells; test: In vitro cell proliferation, MM1.S multiple myeloma cells (CellTiter-Glo, ATP); type: cell-based; conditions: read-out: Prolif MM1S ATP (EC50)
Summary of the method: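 BaF3 parental cells (medium with 2 ng/mL mIL-3) seeded at 2 k/well and MM1.S at 10 k/well, then exposed to test compound at 37° C, 5% CO2: BaF3 overnight, MM1.S for 72 hours. Viability read by CellTiter-Glo; IC50/EC50 values calculated.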

[2] = Mus musculus, BaF3, BaF3 parental cells with IL-3, incubated overnight, read-out: Prolif BaF3 + IL3 (IC50)
[3] = BaF3, read-out: Prolif BaF3_PIM1 (IC50), BaF3 PIM1 cells, incubated overnight
[4] = Mus musculus, BaF3, BaF3 parental cells with IL-3, incubated overnight, read-out: Prolif BaF3 IL3 (IC50)
[5] = BaF3, read-out: Prolif BaF3 PIM1 (IC50), BaF3 PIM1 cells, incubated overnight
[6] = BaF3 parental cells with IL-3, incubated overnight, read-out: Prolif BaF3 + IL3 (IC50)

Chain of PIM1 (P11309 whole entry): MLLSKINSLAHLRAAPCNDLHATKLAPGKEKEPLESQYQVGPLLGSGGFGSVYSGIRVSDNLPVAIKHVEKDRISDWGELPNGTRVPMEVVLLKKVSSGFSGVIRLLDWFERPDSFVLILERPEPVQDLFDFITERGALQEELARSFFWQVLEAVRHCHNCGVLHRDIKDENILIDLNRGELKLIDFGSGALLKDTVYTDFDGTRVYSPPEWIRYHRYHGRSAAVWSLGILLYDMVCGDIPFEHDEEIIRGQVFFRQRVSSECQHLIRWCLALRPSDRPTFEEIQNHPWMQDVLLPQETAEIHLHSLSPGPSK

| SMILES | IC50 (BaF3 PIM1 cells; [3]) [nM] | Ki (PIM1) [nM] | EC50 ([1]; Homo sapiens, MM1.S, 72 h) [nM] | IC50 (BaF3 parental cells; [2]) [nM] | further results |
| --- | --- | --- | --- | --- | --- |
| Cn1ncc(NC(=O)c2nc(-c3ccccc3F)sc2N)c1N1CCCC(C)(N)CC1 (single isomer, unassigned) [Example 434, 5-amino-N-[5-(4-amino-4-methyl-azepan-1-yl)-1-methyl-pyrazol-4-yl]-2-(2-fluorophenyl)thiazole-4-carboxamide] | 1000 | 0.093 |  | 15500 |  |
| Nc1sc(-c2c(F)cccc2F)nc1C(=O)Nc1cnn(CC(F)F)c1N1CCCC[C@H](N)C1 [Example 103, (S)-5-amino-N-(5-(3-aminoazepan-1-yl)-1-(2,2-difluoroethyl)-1H-pyrazol-4-yl)-2-(2,6-difluorophenyl)thiazole-4-carboxamide] |  | 0.083 |  |  | IC50 (BaF3 parental cells; [4]): 8200 nM; IC50 (BaF3 PIM1 cells; [5]): 4200 nM |
| Cn1ncc(NC(=O)c2nc(-c3c(F)cccc3F)sc2N)c1N1CCC(N)CC(F)(F)C1 (centres unmarked) [Example 121, 5-Amino-N-(5-(5-amino-3,3-difluoroazepan-1-yl)-1-methyl-1H-pyrazol-4-yl)-2-(2,6-difluorophenyl)thiazole-4-carboxamide] |  |  | 50.2 |  | IC50 (BaF3 parental cells; [4]): 4800 nM; IC50 (BaF3 PIM1 cells; [5]): 21 nM |
| Cn1ncc(NC(=O)c2nc(-c3c(F)cccc3F)sc2N)c1N1CC[C@@H](N)CC(F)(F)C1 [Example 167, (R)-5-amino-N-(5-(5-amino-3,3-difluoroazepan-1-yl)-1-methyl-1H-pyrazol-4-yl)-2-(2,6-difluorophenyl)thiazole-4-carboxamide] |  |  | 1400 |  | IC50 (BaF3 parental cells; [4]): > 25000 nM; IC50 (BaF3 PIM1 cells; [5]): 48.4 nM |
| Cc1ccncc1-c1nc(C(=O)Nc2cnn(C)c2N2CC[C@@H](N)[C@H](F)CC2)c(N)s1 [Example 428, 5-amino-N-[5-[(4R,5R)-4-amino-5-fluoro-azepan-1-yl]-1-methyl-pyrazol-4-yl]-2-(4-methyl-3-pyridyl)thiazole-4-carboxamide] | 6600 | 0.884 |  | > 25000 |  |
| Cn1ncc(NC(=O)c2nc(-c3c(F)cccc3F)sc2N)c1N1CC[C@@H]2OC(=O)N[C@@H]2CC1 [Example 486, N-[5-[(3aR,8aS)-2-oxo-3a,4,5,7,8,8a-hexahydro-3H-oxazolo[4,5-d]azepin-6-yl]-1-methyl-pyrazol-4-yl]-5-amino-2-(2,6-difluorophenyl)thiazole-4-carboxamide] | 2300 | 0.058 |  | 11200 |  |
| Cn1ncc(NC(=O)c2nc(-c3c(F)cccc3F)sc2N)c1N1CC[C@@H]2NC(=O)O[C@@H]2CC1 [Example 488, N-[5-[(3aS,8aR)-2-oxo-3a,4,5,7,8,8a-hexahydro-3H-oxazolo[4,5-d]azepin-6-yl]-1-methyl-pyrazol-4-yl]-5-amino-2-(2,6-difluorophenyl)thiazole-4-carboxamide] | 2000 | 0.353 |  | 5400 |  |
| [2H]C([2H])([2H])OC1CCN(c2c(NC(=O)c3nc(-c4c(F)cccc4F)sc3N)cnn2C)CCC1N (centres unmarked) [Example 492, 5-amino-N-[5-[4-amino-5-(trideuteriomethoxy)azepan-1-yl]-1-methyl-pyrazol-4-yl]-2-(2,6-difluorophenyl)thiazole-4-carboxamide] |  |  | 73.7 | 20400 |  |
| COC1CCC(c2c(NC(=O)c3nc(-c4ccccc4F)sc3N)cnn2C)CCC1N (centres unmarked) [Example 504] |  |  | 10500 | 15300 |  |
| COC1CCC(c2c(NC(=O)c3nc(-c4ccccc4F)sc3N)cnn2C)CCC1N (centres unmarked) [Example 506] |  |  |  |  | EC50 ([1]; 72 hours): 11700 nM; IC50 (BaF3 parental cells; [6]): 17100 nM |
| CCOC1CCN(c2c(NC(=O)c3nc(-c4c(F)cccc4F)sc3N)cnn2C)CCC1N (centres unmarked) [Example 514, 5-amino-N-[5-(4-amino-5-ethoxy-azepan-1-yl)-1-methyl-pyrazol-4-yl]-2-(2,6-difluorophenyl)thiazole-4-carboxamide] |  |  |  | 15400 | EC50 ([1]; 72 hours): 3100 nM |
| CCOC1CCN(c2c(NC(=O)c3nc(-c4c(F)cccc4F)sc3N)cnn2C)CCC1N (centres unmarked) [Example 515, 5-amino-N-[5-(4-amino-5-ethoxy-azepan-1-yl)-1-methyl-pyrazol-4-yl]-2-(2,6-difluorophenyl)thiazole-4-carboxamide] |  |  |  |  | EC50 ([1]; 72 hours): 73.3 nM; IC50 (BaF3 parental cells; [6]): 14700 nM |
| CO[C@@H]1CCN(c2c(NC(=O)c3nc(-c4c(F)cccc4F)sc3N)cnn2C)CC2(CC2)[C@@H]1N [Example 517, 5-amino-N-(5-((8R,9S)-9-amino-8-methoxy-5-azaspiro[2.6]nonan-5-yl)-1-methyl-1H-pyrazol-4-yl)-2-(2,6-difluorophenyl)thiazole-4-carboxamide] |  |  | 9900 | 11900 |  |

Continued, in another order:

| IC50 (BaF3 PIM1 cells; [3]) [nM] | Ki (PIM1) [nM] | EC50 ([1]; Homo sapiens, MM1.S, 72 h) [nM] | SMILES | IC50 (BaF3 parental cells; [2]) [nM] | further results |
| --- | --- | --- | --- | --- | --- |
| 25.1 | 0.034 |  | Cn1ncc(NC(=O)c2nc(-c3ccncc3F)sc2N)c1N1CCC(N)CC(F)(F)C1 (racemic) [Example 426, 5-amino-N-[5-(5-amino-3,3-difluoro-azepan-1-yl)-1-methyl-pyrazol-4-yl]-2-(3-fluoro-4-pyridyl)thiazole-4-carboxamide] | 24800 |  |
|  |  | 22.9 | Cn1ncc(NC(=O)c2nc(-c3c(F)cccc3F)sc2N)c1N1CC[C@H](N)CC(F)(F)C1 [Example 166, (S)-5-amino-N-(5-(5-amino-3,3-difluoroazepan-1-yl)-1-methyl-1H-pyrazol-4-yl)-2-(2,6-difluorophenyl)thiazole-4-carboxamide] |  | IC50 (BaF3 parental cells; [4]): 13400 nM; IC50 (BaF3 PIM1 cells; [5]): 16.5 nM |
| 1500 | 0.002 |  | Cn1ncc(NC(=O)c2nc(-c3c(F)ccc(I)c3F)sc2N)c1N1CC[C@@H](N)CC(F)(F)C1 [Example 346, 5-amino-N-[5-[(5R)-5-amino-3,3-difluoro-azepan-1-yl]-1-methyl-pyrazol-4-yl]-2-(2,6-difluoro-3-iodo-phenyl)thiazole-4-carboxamide] | 1200 |  |
| 69.2 | 0.002 |  | Cn1ncc(NC(=O)c2nc(-c3c(F)ccc(I)c3F)sc2N)c1N1CC[C@H](N)CC(F)(F)C1 [Example 347, 5-amino-N-[5-[(5S)-5-amino-3,3-difluoro-azepan-1-yl]-1-methyl-pyrazol-4-yl]-2-(2,6-difluoro-3-iodo-phenyl)thiazole-4-carboxamide] | 2400 |  |
| 825 | 0.109 |  | CCn1ncc(NC(=O)c2nc(-c3c(F)cccc3F)sc2N)c1N1CC[C@H](N)[C@@H](F)CC1 [Example 348, 5-amino-N-(5-((4S,5S)-4-amino-5-fluoroazepan-1-yl)-1-ethyl-1H-pyrazol-4-yl)-2-(2,6-difluorophenyl)thiazole-4-carboxamide] | 11200 |  |
| 2500 | 0.144 |  | Cc1cnc(F)c(-c2nc(C(=O)Nc3cnn(C)c3N3CCC[C@H](N)CC3)c(N)s2)c1 [Example 425, 5-amino-N-[5-[(4S)-4-aminoazepan-1-yl]-1-methyl-pyrazol-4-yl]-2-(2-fluoro-5-methyl-3-pyridyl)thiazole-4-carboxamide] | > 25000 |  |
| 5300 | 0.315 |  | Cc1c(-c2nc(C(=O)Nc3cnn(C)c3N3CC[C@@H](N)[C@H](F)CC3)c(N)s2)cnn1C [Example 429, 5-amino-N-[5-[(4R,5R)-4-amino-5-fluoro-azepan-1-yl]-1-methyl-pyrazol-4-yl]-2-(1,5-dimethylpyrazol-4-yl)thiazole-4-carboxamide] | > 25000 |  |
| 5800 | 1.44 |  | Cn1ncc(NC(=O)c2nc(-c3cccc(C#N)n3)sc2N)c1N1CC[C@@H](N)[C@H](F)CC1 [Example 432, 5-amino-N-[5-[(4R,5R)-4-amino-5-fluoro-azepan-1-yl]-1-methyl-pyrazol-4-yl]-2-(6-cyano-2-pyridyl)thiazole-4-carboxamide] | 6300 |  |
| 1300 | 0.024 |  | Cn1ncc(NC(=O)c2nc(-c3ccccc3F)sc2N)c1N1CCCC(C)(N)CC1 (centres unmarked) [Example 433, 5-amino-N-[5-(4-amino-4-methyl-azepan-1-yl)-1-methyl-pyrazol-4-yl]-2-(2-fluorophenyl)thiazole-4-carboxamide] | 11100 |  |
|  |  | 888 | Cn1ncc(NC(=O)c2nc(-c3c(F)cccc3F)sc2N)c1N1CCC(C)(N)CC(F)(F)C1 (centres unmarked) [Example 495, 5-amino-N-[5-(5-amino-3,3-difluoro-5-methyl-azepan-1-yl)-1-methyl-pyrazol-4-yl]-2-(2,6-difluorophenyl)thiazole-4-carboxamide] | 5400 |  |
|  |  | 19600 | CC[C@H]1CN(c2c(NC(=O)c3nc(-c4c(F)cccc4F)sc3N)cnn2C)CC[C@@]1(CN)OC [Example 496, 5-amino-N-(5-((3S,4R)-4-(aminomethyl)-3-ethyl-4-methoxypiperidin-1-yl)-1-methyl-1H-pyrazol-4-yl)-2-(2,6-difluorophenyl)thiazole-4-carboxamide] | 11600 |  |
|  |  | 3000 | Cn1ncc(NC(=O)c2nc(-c3c(F)cccc3F)sc2N)c1N1CCCC2(CNC2)C1 [Example 508, 5-amino-N-[5-(2,6-diazaspiro[3.5]nonan-6-yl)-1-methyl-pyrazol-4-yl]-2-(2,6-difluorophenyl)thiazole-4-carboxamide] | 25000 |  |
|  |  | 7200 | Cn1ncc(NC(=O)c2nc(-c3c(F)cccc3F)sc2N)c1N1CCC(N)C(CO)CC1 (centres unmarked) [Example 513, 5-amino-N-[5-[4-amino-5-(hydroxymethyl)azepan-1-yl]-1-methyl-pyrazol-4-yl]-2-(2,6-difluorophenyl)thiazole-4-carboxamide] | > 25000 |  |
